What all share (assay): relative viability (nuclei count vs DMSO), 5 days (fraction); higher = more cells survive
Compound in experiment [1]: C1=CC2=NC=CN=C2C=C1/C=C/3\C(=O)NC(=O)S3 + CS(=O)(=O)N1CCN(Cc2cc3nc(-c4cccc5[nH]ncc45)nc(N4CCOCC4)c3s2)CC1 [Pictilisib] (partner 1 µM)
In a few lines: (§1)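 Relative viability was taken as the ratio of nuclei in treated wells to nuclei in vehicle wells. Lung cancer cell lines in 1536-well plates received compounds by pin tool one day after seeding, either one drug alone or a fixed anchor-drug dose plus five library-drug doses (not always all listed) in √10 steps. Nuclei were counted on 4× images after 5 days of treatment, and values are medians of duplicate plates.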

Compound in the experiment “BGJ398 + Tozasertib”: CCN1CCN(c2ccc(Nc3cc(N(C)C(=O)Nc4c(Cl)c(OC)cc(OC)c4Cl)ncn3)cc2)CC1 [BGJ398] + Cc1cc(Nc2cc(N3CCN(C)CC3)nc(Sc3ccc(NC(=O)C4CC4)cc3)n2)n[nH]1 [Tozasertib] (partner 0.1 µM)
In a few lines:
as §1

Compound in the experiment “BGJ398 + Olaparib”: CCN1CCN(c2ccc(Nc3cc(N(C)C(=O)Nc4c(Cl)c(OC)cc(OC)c4Cl)ncn3)cc2)CC1 [BGJ398] + O=C(c1cc(Cc2n[nH]c(=O)c3ccccc23)ccc1F)N1CCN(C(=O)C2CC2)CC1 [Olaparib] (partner 8 µM)
The gist of the method:
as §1

Compound in experiment [2]: C1=CC2=NC=CN=C2C=C1/C=C/3\C(=O)NC(=O)S3 + COc1cc2c(Oc3ccc(NC(=O)C4(C(=O)Nc5ccc(F)cc5)CC4)cc3F)ccnc2cc1OCCCN1CCOCC1 [Foretinib] (partner 0.25 µM)
In a few lines: as §1

For 6 cell lines, relative viability results are on record in the supplement of paper PMC10307832.

For NCI-H322M, the relative viability was determined as 0.477 in experiment [1] (first compound 0.02 µM); 0.476 in experiment [1] (first compound 0.06325 µM); 0.586 in experiment [1] (first compound 0.2 µM); 0.518 in experiment [1] (first compound 0.6325 µM); 0.434 in experiment [1] (first compound 2 µM); 0.479 with BGJ398 + Tozasertib (first compound 0.01 µM). The relative viability in the experiment with BGJ398 + Tozasertib (first compound 0.03162 µM) amounted to 0.462; with BGJ398 + Tozasertib (first compound 0.1 µM), 0.461; with BGJ398 + Tozasertib (first compound 0.3162 µM), 0.525; with BGJ398 + Tozasertib (first compound 1 µM), 0.521; with BGJ398 + Olaparib (first compound 0.01 µM), 0.801; in the experiment with BGJ398 + Olaparib (first compound 0.03162 µM) it was 0.73. The relative viability in the experiment with BGJ398 + Olaparib (first compound 0.1 µM) worked out at 0.761; with BGJ398 + Olaparib (first compound 0.3162 µM), 0.758; in the experiment with BGJ398 + Olaparib (first compound 1 µM) it was 0.815; in experiment [2] (first compound 0.02 µM), 0.969; in experiment [2] (first compound 0.06325 µM), 0.918; in experiment [2] (first compound 0.2 µM) it was 0.932. Moreover, the relative viability in experiment [2] (first compound 0.6325 µM) was 0.906; in experiment [2] (first compound 2 µM), 0.669.
NCI-H2170: the relative viability was 0.296 in experiment [1] (first compound 0.02 µM); 0.273 in experiment [1] (first compound 0.06325 µM); 0.369 in experiment [1] (first compound 0.2 µM); 0.28 in experiment [1] (first compound 0.6325 µM); 0.258 in experiment [1] (first compound 2 µM); 0.804 with BGJ398 + Tozasertib (first compound 0.01 µM). For the same cell line, the relative viability amounted to 0.714 with BGJ398 + Tozasertib (first compound 0.03162 µM); 0.687 with BGJ398 + Tozasertib (first compound 0.1 µM); 0.694 with BGJ398 + Tozasertib (first compound 0.3162 µM); 0.78 with BGJ398 + Tozasertib (first compound 1 µM); 0.605 in the experiment with BGJ398 + Olaparib (first compound 0.01 µM); 0.584 with BGJ398 + Olaparib (first compound 0.03162 µM). Moreover, the relative viability was 0.633 with BGJ398 + Olaparib (first compound 0.1 µM); 0.57 with BGJ398 + Olaparib (first compound 0.3162 µM); 0.553 with BGJ398 + Olaparib (first compound 1 µM); 0.962 in experiment [2] (first compound 0.02 µM); 1.12 in experiment [2] (first compound 0.06325 µM); 1.05 in experiment [2] (first compound 0.2 µM). Also, the relative viability in experiment [2] (first compound 0.6325 µM) stood at 1.01; in experiment [2] (first compound 2 µM), 1.02.
Take NCI-H1395: the relative viability in experiment [1] (first compound 0.02 µM) worked out at 0.669; in experiment [1] (first compound 0.06325 µM), 0.596; in experiment [1] (first compound 0.2 µM), 0.786; in experiment [1] (first compound 0.6325 µM), 0.564; in experiment [1] (first compound 2 µM), 0.512; with BGJ398 + Tozasertib (first compound 0.01 µM), 0.739. Also, the relative viability turned out to be 0.789 with BGJ398 + Tozasertib (first compound 0.03162 µM); 0.72 in the experiment with BGJ398 + Tozasertib (first compound 0.1 µM); 0.624 in the experiment with BGJ398 + Tozasertib (first compound 0.3162 µM); 0.511 in the experiment with BGJ398 + Tozasertib (first compound 1 µM); 0.441 in the experiment with BGJ398 + Olaparib (first compound 0.01 µM); 0.426 with BGJ398 + Olaparib (first compound 0.03162 µM). The relative viability with BGJ398 + Olaparib (first compound 0.1 µM) worked out at 0.434; with BGJ398 + Olaparib (first compound 0.3162 µM), 0.428; with BGJ398 + Olaparib (first compound 1 µM), 0.409; in experiment [2] (first compound 0.02 µM) it was 1.04; in experiment [2] (first compound 0.06325 µM), 1.03; in experiment [2] (first compound 0.2 µM) it was 1. Besides, the relative viability in experiment [2] (first compound 0.6325 µM) turned out to be 0.871; in experiment [2] (first compound 2 µM), 1.03.
With NCI-H358, the relative viability in experiment [1] (first compound 0.02 µM) worked out at 0.357; in experiment [1] (first compound 0.06325 µM) it was 0.344; in experiment [1] (first compound 0.2 µM) it was 0.402; in experiment [1] (first compound 0.6325 µM) it was 0.38; in experiment [1] (first compound 2 µM) it was 0.258; with BGJ398 + Tozasertib (first compound 0.01 µM), 0.0959. The relative viability in the experiment with BGJ398 + Tozasertib (first compound 0.03162 µM) came out at 0.0952; with BGJ398 + Tozasertib (first compound 0.1 µM), 0.109; in the experiment with BGJ398 + Tozasertib (first compound 0.3162 µM) it was 0.102; in the experiment with BGJ398 + Tozasertib (first compound 1 µM), 0.1; with BGJ398 + Olaparib (first compound 0.01 µM), 0.744; in the experiment with BGJ398 + Olaparib (first compound 0.03162 µM) it was 0.622. Moreover, the relative viability with BGJ398 + Olaparib (first compound 0.1 µM) turned out to be 0.619; with BGJ398 + Olaparib (first compound 0.3162 µM), 0.698; in the experiment with BGJ398 + Olaparib (first compound 1 µM) it was 0.584; in experiment [2] (first compound 0.02 µM) it was 0.875; in experiment [2] (first compound 0.06325 µM), 0.648; in experiment [2] (first compound 0.2 µM) it was 0.672. The relative viability in experiment [2] (first compound 0.6325 µM) was found to be 0.613; in experiment [2] (first compound 2 µM), 0.445.
NCI-H838: the relative viability in experiment [1] (first compound 0.02 µM) is 0.395; in experiment [1] (first compound 0.06325 µM), 0.446; in experiment [1] (first compound 0.2 µM) it was 0.429; in experiment [1] (first compound 0.6325 µM), 0.369; in experiment [1] (first compound 2 µM), 0.322; in the experiment with BGJ398 + Tozasertib (first compound 0.01 µM), 0.317. Further, the relative viability with BGJ398 + Tozasertib (first compound 0.03162 µM) was 0.305; with BGJ398 + Tozasertib (first compound 0.1 µM), 0.262; with BGJ398 + Tozasertib (first compound 0.3162 µM), 0.234; with BGJ398 + Tozasertib (first compound 1 µM) it was 0.201; in the experiment with BGJ398 + Olaparib (first compound 0.01 µM), 0.731; with BGJ398 + Olaparib (first compound 0.03162 µM) it was 0.754. In addition, the relative viability in the experiment with BGJ398 + Olaparib (first compound 0.1 µM) was 0.749; in the experiment with BGJ398 + Olaparib (first compound 0.3162 µM), 0.741; with BGJ398 + Olaparib (first compound 1 µM) it was 0.667; in experiment [2] (first compound 0.02 µM) it was 1.02; in experiment [2] (first compound 0.06325 µM), 1.08; in experiment [2] (first compound 0.2 µM) it was 1. Moreover, the relative viability in experiment [2] (first compound 0.6325 µM) is 1.02; in experiment [2] (first compound 2 µM) it was 0.874.
CAL-12T: the relative viability in experiment [1] (first compound 0.02 µM) was determined as 0.341; in experiment [1] (first compound 0.06325 µM) it was 0.444; in experiment [1] (first compound 0.2 µM), 0.716; in experiment [1] (first compound 0.6325 µM), 0.39; in experiment [1] (first compound 2 µM), 0.64; with BGJ398 + Tozasertib (first compound 0.01 µM), 0.285. In addition, the relative viability with BGJ398 + Tozasertib (first compound 0.03162 µM) was 0.324; with BGJ398 + Tozasertib (first compound 0.1 µM), 0.279; with BGJ398 + Tozasertib (first compound 0.3162 µM) it was 0.233; with BGJ398 + Tozasertib (first compound 1 µM), 0.243; with BGJ398 + Olaparib (first compound 0.01 µM), 0.688; in the experiment with BGJ398 + Olaparib (first compound 0.03162 µM) it was 0.819. Also, the relative viability with BGJ398 + Olaparib (first compound 0.1 µM) was 0.613; in the experiment with BGJ398 + Olaparib (first compound 0.3162 µM), 0.773; in the experiment with BGJ398 + Olaparib (first compound 1 µM) it was 0.666; in experiment [2] (first compound 0.02 µM), 1.07; in experiment [2] (first compound 0.06325 µM), 1.05; in experiment [2] (first compound 0.2 µM), 1.09. Besides, the relative viability worked out at 1.01 in experiment [2] (first compound 0.6325 µM) and 1.15 in experiment [2] (first compound 2 µM).
